Our source for the IC50 and inhibition values is PMC6009881, “New sulfurated derivatives of cinnamic acids and rosmaricine as inhibitors of STAT3 and NF-κB transcription factors” (Journal of Enzyme Inhibition and Medicinal Chemistry, 2017).

One test has as its target STAT3-SH2 domain (Homo sapiens, UniProt P40763). The test can be described thus: STAT AlphaScreen-based assay (STAT3). The conditions noted are these: AlphaScreen assay; for IC50: read-out: STAT3 IC50 ±SD; for inhibition at 30 µM: read-out: STAT3 % inhibition ± SD at 30 μM. Type of test: binding.
The next test addresses T1, SH2-domain of STAT1 (Homo sapiens, UniProt P42224).
T1 sequence (P42224 1-750): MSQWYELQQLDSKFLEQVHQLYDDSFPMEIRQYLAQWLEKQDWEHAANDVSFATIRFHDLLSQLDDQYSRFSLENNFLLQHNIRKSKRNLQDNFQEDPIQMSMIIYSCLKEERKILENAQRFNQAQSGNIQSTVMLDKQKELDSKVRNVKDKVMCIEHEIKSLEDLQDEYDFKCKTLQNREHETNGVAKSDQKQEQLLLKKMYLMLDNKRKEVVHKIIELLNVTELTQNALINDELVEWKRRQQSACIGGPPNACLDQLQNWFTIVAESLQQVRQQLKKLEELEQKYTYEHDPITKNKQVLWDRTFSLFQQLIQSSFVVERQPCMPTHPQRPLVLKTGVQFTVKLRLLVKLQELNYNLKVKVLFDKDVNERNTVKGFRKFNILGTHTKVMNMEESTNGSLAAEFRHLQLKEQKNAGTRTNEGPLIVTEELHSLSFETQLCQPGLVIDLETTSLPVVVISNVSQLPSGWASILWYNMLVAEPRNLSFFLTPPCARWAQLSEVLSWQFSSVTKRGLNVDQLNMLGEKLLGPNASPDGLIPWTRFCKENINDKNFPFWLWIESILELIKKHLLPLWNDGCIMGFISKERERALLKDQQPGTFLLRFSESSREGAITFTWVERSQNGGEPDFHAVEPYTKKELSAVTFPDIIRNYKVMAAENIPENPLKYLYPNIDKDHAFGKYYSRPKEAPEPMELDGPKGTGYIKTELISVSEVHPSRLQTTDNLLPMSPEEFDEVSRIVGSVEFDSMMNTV
The test can be described thus: STAT AlphaScreen-based assay (STAT1 selectivity). The conditions noted are these: for inhibition at 30 µM: read-out: STAT1 % inhibition ± SD at 30 μM, 30 μM; for IC50: read-out: STAT1 IC50 ±SD. Type of test: binding. Here is the method: STAT3 inhibitory activity of the described compounds was tested by the AlphaScreen-based assay to evaluate the potential inhibition of the interaction between STAT3-SH2 domain and pTyr-containing peptides according to the previously reported procedure. For the most interesting compounds, selectivity tests versus STAT1 were performed.
The new sulfurated-drug hybrids, together with their parent compounds have been submitted to the AlphaScreen-based assay, to investigate their ability to bind STAT3 directly, through the evaluation of the inhibition of the binding of SH2-containing proteins to their correspondent phosphopeptides, the physiological ligands. […] Since AlphaScreen is a cell-free assay, not always there is a correspondence between the potency of STAT3 inhibition and cytotoxicity, probably due to not optimal physicochemical properties of the tested compounds, such as solubility and chemical stability in the culture medium and cell permeation.
On the technique in general: Alpha assays give light when donor and acceptor beads are brought close together.

In general, IC50 refers to the concentration needed to halve the response being measured. The term inhibition denotes the change of the read-out against control, counted positive when it falls.

The structures appear in SMILES notation. Structures can show the parent of a compound that is named as a salt.

STAT3-SH2 domain, sequence (P40763 whole entry, the tested form may be a part): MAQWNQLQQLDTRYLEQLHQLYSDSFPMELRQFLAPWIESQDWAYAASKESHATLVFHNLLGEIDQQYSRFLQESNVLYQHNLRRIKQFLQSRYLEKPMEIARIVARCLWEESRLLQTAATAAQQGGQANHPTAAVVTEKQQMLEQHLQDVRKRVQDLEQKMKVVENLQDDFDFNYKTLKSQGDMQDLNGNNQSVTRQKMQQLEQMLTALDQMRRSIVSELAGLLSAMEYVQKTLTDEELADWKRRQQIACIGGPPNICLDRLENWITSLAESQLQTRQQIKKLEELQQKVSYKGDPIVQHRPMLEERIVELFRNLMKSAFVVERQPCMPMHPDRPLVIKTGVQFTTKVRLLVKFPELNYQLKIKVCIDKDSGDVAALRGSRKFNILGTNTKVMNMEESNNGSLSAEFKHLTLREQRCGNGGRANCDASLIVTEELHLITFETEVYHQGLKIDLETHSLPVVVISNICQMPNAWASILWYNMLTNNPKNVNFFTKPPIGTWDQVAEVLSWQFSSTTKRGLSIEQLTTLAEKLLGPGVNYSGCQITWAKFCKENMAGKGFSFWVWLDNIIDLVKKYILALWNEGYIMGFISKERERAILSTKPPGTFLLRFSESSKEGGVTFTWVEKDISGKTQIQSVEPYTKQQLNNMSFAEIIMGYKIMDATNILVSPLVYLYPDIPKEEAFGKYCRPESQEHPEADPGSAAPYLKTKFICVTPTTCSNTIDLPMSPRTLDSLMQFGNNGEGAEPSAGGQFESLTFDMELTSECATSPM

With `CS(=O)(=O)SCCO` [Compound 1, S-2-hydroxyethyl methanesulfonothioate], at STAT3-SH2 domain, the IC50 was over 30 µM and the inhibition at 30 µM turned out to be 11.6%.
Regarding `CS(=O)(=O)SCCCCO` [Compound 2, S-4-hydroxybutyl methanesulfonothioate], on STAT3-SH2 domain, the IC50 amounted to 4.4 ± 0.3 µM and the inhibition at 30 µM is 88.4 ± 0.5%. Besides, at SH2-domain of STAT1, the inhibition at 30 µM came out at 73.7 ± 1.4% and the IC50 is 8.6 ± 0.7 µM.
`CS(=O)(=O)SCCN` [Compound 3, S-2-aminoethyl methanesulfonothioate hydrobromide]: the inhibition at 3 µM against STAT3-SH2 domain (3 μM) is 46.8%. Besides, on STAT3-SH2 domain, the IC50 was over 30 µM and the inhibition at 30 µM was -10.2%. At SH2-domain of STAT1, the inhibition at 3 µM came to 14.5% and the IC50 is over 3 µM.
For `C=CCSSCCO` [Compound 4, 2-(Allyldisulfanyl)ethanol], the figures for the IC50 at STAT3-SH2 domain and at SH2-domain of STAT1 were 22.2 ± 3 µM and over 30 µM, respectively. Further, the inhibition at 30 µM on STAT3-SH2 domain came to 55.7 ± 2.5%; at SH2-domain of STAT1, 11.7 ± 6%.
Take `CS(=O)(=O)SCCCCC(=O)O` [Compound 6, 5-(methanesulfonylthio)pentanoic acid]: at STAT3-SH2 domain, the 50% inhibitory concentration (IC50) amounted to 4.7 ± 1.1 µM and the inhibition at 30 µM worked out at 72.5 ± 4.8%. On SH2-domain of STAT1, the inhibition at 3 µM turned out to be 8.6% and the IC50 was over 3 µM.
Consider `COC(=O)CCCCSS(C)(=O)=O` [Compound 7, Methyl 5-((methylsulfonyl)thio)pentanoate], for which, at STAT3-SH2 domain, the IC50 is 1.9 ± 0.2 µM and the inhibition at 30 µM came to 99.6 ± 0.1%. At SH2-domain of STAT1, the inhibition at 30 µM was 70.8 ± 1.2% and the IC50 worked out at 20.1 ± 0.4 µM.
For the compound `C=CCSSCCC(=O)O` [Compound 9, 3-(allyldisulfanyl)propionic acid], at STAT3-SH2 domain, the IC50 is over 30 µM and the inhibition at 30 µM turned out to be 43.9 ± 3.6%.
For the compound `C=CCSSCCC(=O)OC` [Compound 10, Methyl 3-(allyldisulfanyl)propanoate], on STAT3-SH2 domain, the IC50 was over 30 µM and the inhibition at 30 µM was found to be 42 ± 4.7%. For the same compound, at SH2-domain of STAT1, the inhibition at 30 µM turned out to be 11.2% and the IC50 was over 30 µM.
As for `COc1cc(/C=C/C(=O)O)ccc1O` [Compound 12, ferulic acid, reference compound], on STAT3-SH2 domain, the IC50 was over 30 µM and the inhibition at 30 µM came out at 0.2 ± 8.2%.
Turning to `COC(=O)/C=C/c1ccc(O)c(OC)c1` [Compound 13], at STAT3-SH2 domain, the IC50 is over 30 µM and the inhibition at 30 µM turned out to be 2.1 ± 2.3%.
On to `COc1cc(/C=C/C(=O)NCCSS(C)(=O)=O)ccc1O` [Compound 16, (E)-S-2-(3-(4-hydroxy-3-methoxyphenyl)acrylamido)ethyl methanesulfonothioate], for which the IC50 on STAT3-SH2 domain is 1.8 ± 0.5 µM; on SH2-domain of STAT1 it was over 30 µM. The inhibition at 30 µM at STAT3-SH2 domain was determined as 107.8 ± 0.1%; on SH2-domain of STAT1 it was 4.1 ± 5.4%.
In the case of `C=CCSSCCOC(=O)/C=C/c1ccc(O)c(OC)c1` [Compound 17, (E)-2-(allyldisulfanyl)ethyl 3-(4-hydroxy-3-methoxyphenyl)acrylate], on STAT3-SH2 domain, the half-maximal inhibitory concentration (IC50) amounted to 7.8 ± 0.6 µM and the inhibition at 30 µM stood at 67.9 ± 0.8%. Moreover, on SH2-domain of STAT1, the inhibition at 30 µM stood at 12 ± 4.7% and the IC50 was over 30 µM.
Regarding `COc1cc(/C=C/C(=O)Oc2ccc(-c3cc(=S)ss3)cc2)ccc1O` [Compound 18, (E)-4-(3-thioxo-3H-1,2-dithiol-5-yl)phenyl 3-(4-hydroxy-3-methoxyphenyl)acrylate], on STAT3-SH2 domain, the IC50 stood at 28.5 ± 0.7 µM and the inhibition at 30 µM was 51.3 ± 0.7%. At SH2-domain of STAT1, the inhibition at 30 µM amounted to 44.2 ± 1.9% and the concentration for half-maximal inhibition (IC50) was over 30 µM.
Consider `CS(=O)(=O)SCCNC(=O)/C=C/c1ccc(O)c(O)c1` [Compound 22, (E)-S-2-(3-(3,4-dihydroxyphenyl)acrylamido)ethyl methanesulfonothioate], for which, on STAT3-SH2 domain, the IC50 was 0.9 ± 0.1 µM and the inhibition at 30 µM is 99.8 ± 0.1%. Also, at SH2-domain of STAT1, the inhibition at 30 µM is -17.8 ± 0.3% and the IC50 is over 30 µM.
